# Laboratory results taken from paper PMC7979765, “trans-Translation inhibitors bind to a novel site on the ribosome and clear Neisseria gonorrhoeae in vivo” (Nature Communications, 2021).
# Several values for one entry are separate records, joined by “and”; a condition that tells them apart may be missing. Equal values may be shown once. Read-outs that look alike come from different tables or passages of the source.
# System: Salmonella typhimurium strains TA98 and TA100
# Format: cell-based
# Experimental: The Ames assay was performed at SRI Biosciences, following the standard protocols established there[55]–[57]. In brief, samples were evaluated for their ability to induce genetic damage using the plate incorporation method with Salmonella typhimurium strains TA98 and TA100 with and without a metabolic activation mixture containing 10% Aroclar-1254-induced rat-liver microsomes (S9). MBX-4132 was tested from a 5 mg/mL DMSO stock solution (the solubility limit), which provided plate concentrations up to 500 µg/plate, with serial dilutions accessing doses as low as 5 µg/plate. MBX-4132 precipitated at the two highest dose levels (500 and 100 µg/plate), but at 50 µg/plate, no precipitation was observed. […] Test articles were considered mutagenic when the mean number of revertant colonies increased in a dose-dependent manner. Some cytotoxicity was observed, but sufficient colonies were formed to allow analysis. […] Data for 2-nitrofluorene and sodium azide (positive controls) and DMSO (negative control) were included for reference.
structure (smiles),measurement,setting,value
O=C(Nc1nnc(-c2ccc(F)cc2)o1)N1CCc2ccccc2C1 [MBX-4132],Average Mean Revertants/plate,"TA98, 1 µg/plate, + S9",23.5 Revertants/plate
same,Average Mean Revertants/plate,"TA98, 1 µg/plate, no S9",21.5 Revertants/plate
same,Mean Revertants/plate,"TA98, 1 µg/plate, no S9, replicates",23 Revertants/plate and 20 Revertants/plate
same,Average Mean Revertants/plate,"TA98, 5 µg/plate, + S9",22 Revertants/plate
same,Average Mean Revertants/plate,"TA98, 5 µg/plate, no S9",17.0 Revertants/plate
same,Mean Revertants/plate,"TA98, 5 µg/plate, no S9, replicates",18 Revertants/plate and 16 Revertants/plate
same,Average Mean Revertants/plate,"TA98, 10 µg/plate, + S9",21 Revertants/plate
same,Average Mean Revertants/plate,"TA98, 10 µg/plate, no S9",15.0 Revertants/plate
same,Mean Revertants/plate,"TA98, 10 µg/plate, no S9, replicates",14 Revertants/plate and 16 Revertants/plate
same,Average Mean Revertants/plate,"TA98, 50 µg/plate, + S9",18.5 Revertants/plate
same,Average Mean Revertants/plate,"TA98, 50 µg/plate, no S9",20.0 Revertants/plate
same,Mean Revertants/plate,"TA98, 50 µg/plate, no S9, replicates",18 Revertants/plate and 22 Revertants/plate
same,Average Mean Revertants/plate,"TA98, 100 µg/plate, + S9",17.5 Revertants/plate
same,Average Mean Revertants/plate,"TA98, 100 µg/plate, no S9",20.0 Revertants/plate
same,Mean Revertants/plate,"TA98, 100 µg/plate, no S9, replicates",18 Revertants/plate and 22 Revertants/plate
same,Average Mean Revertants/plate,"TA98, 500 µg/plate, + S9",20 Revertants/plate
same,Average Mean Revertants/plate,"TA98, 500 µg/plate, no S9",17.5 Revertants/plate
same,Mean Revertants/plate,"TA98, 500 µg/plate, no S9, replicates",19 Revertants/plate and 16 Revertants/plate
same,Mean Revertants/plate,"TA98, + S9, 1 µg/plate",23.5
same,Mean Revertants/plate,"TA98, + S9, 5 µg/plate",22.0
same,Mean Revertants/plate,"TA98, + S9, 10 µg/plate",21.0
same,Mean Revertants/plate,"TA98, + S9, 50 µg/plate",18.5
same,Mean Revertants/plate,"TA98, + S9, 100 µg/plate",17.5
same,Mean Revertants/plate,"TA98, + S9, 500 µg/plate",20.0
same,Mean Revertants/plate,"TA98, without S9, 1 µg/plate",21.5
same,Mean Revertants/plate,"TA98, without S9, 5 µg/plate",17.0
same,Mean Revertants/plate,"TA98, without S9, 10 µg/plate",15.0
same,Mean Revertants/plate,"TA98, without S9, 50 µg/plate",20.0
same,Mean Revertants/plate,"TA98, without S9, 100 µg/plate",20.0
same,Mean Revertants/plate,"TA98, without S9, 500 µg/plate",17.5
same,revertant colonies vs DMSO control (in words),"TA98 and TA100, with and without S9, any concentration tested",no significant deviation
same,Average Mean Revertants/plate,"TA100, 1 µg/plate, + S9",107.5 Revertants/plate
same,Average Mean Revertants/plate,"TA100, 1 µg/plate, no S9",112.5 Revertants/plate
same,Mean Revertants/plate,"TA100, 1 µg/plate, no S9, replicates",108 Revertants/plate and 117 Revertants/plate
same,Average Mean Revertants/plate,"TA100, 5 µg/plate, + S9",125.5 Revertants/plate
same,Average Mean Revertants/plate,"TA100, 5 µg/plate, no S9",99.0 Revertants/plate
same,Mean Revertants/plate,"TA100, 5 µg/plate, no S9, replicates",98 Revertants/plate and 100 Revertants/plate
same,Average Mean Revertants/plate,"TA100, 10 µg/plate, + S9",102 Revertants/plate
same,Average Mean Revertants/plate,"TA100, 10 µg/plate, no S9",97.0 Revertants/plate
same,Mean Revertants/plate,"TA100, 10 µg/plate, no S9, replicates",94 Revertants/plate and 100 Revertants/plate
same,Average Mean Revertants/plate,"TA100, 50 µg/plate, + S9",71 Revertants/plate
same,Average Mean Revertants/plate,"TA100, 50 µg/plate, no S9",73.0 Revertants/plate
same,Mean Revertants/plate,"TA100, 50 µg/plate, no S9, replicates",79 Revertants/plate and 67 Revertants/plate
same,Average Mean Revertants/plate,"TA100, 100 µg/plate, + S9",43 Revertants/plate
same,Average Mean Revertants/plate,"TA100, 100 µg/plate, no S9",54.0 Revertants/plate
same,Mean Revertants/plate,"TA100, 100 µg/plate, no S9, replicates",55 Revertants/plate and 53 Revertants/plate
same,Average Mean Revertants/plate,"TA100, 500 µg/plate, + S9",19.5 Revertants/plate
same,Average Mean Revertants/plate,"TA100, 500 µg/plate, no S9",35.5 Revertants/plate
same,Mean Revertants/plate,"TA100, 500 µg/plate, no S9, replicates",38 Revertants/plate and 33 Revertants/plate
same,Mean Revertants/plate,"TA100, + S9, 1 µg/plate",107.5
same,Mean Revertants/plate,"TA100, + S9, 5 µg/plate",125.5
same,Mean Revertants/plate,"TA100, + S9, 10 µg/plate",102.0
same,Mean Revertants/plate,"TA100, + S9, 50 µg/plate",71.0
same,Mean Revertants/plate,"TA100, + S9, 100 µg/plate",43.0
same,Mean Revertants/plate,"TA100, + S9, 500 µg/plate",19.5
same,Mean Revertants/plate,"TA100, without S9, 1 µg/plate",112.5
same,Mean Revertants/plate,"TA100, without S9, 5 µg/plate",99.0
same,Mean Revertants/plate,"TA100, without S9, 10 µg/plate",97.0
same,Mean Revertants/plate,"TA100, without S9, 50 µg/plate",73.0
same,Mean Revertants/plate,"TA100, without S9, 100 µg/plate",54.0
same,Mean Revertants/plate,"TA100, without S9, 500 µg/plate",35.5
